According to US9339038B2, “Herbicidal composition” (priority 2012, dated 2016):
Where a name gives a salt, the structure may show the parent alone.

Assays:
Assay type in all cases: in vivo
[1] = tested on: persian speedwell (Veronica persica Poir.); assay: Test Example 6: foliar treatment of potted persian speedwell, visual growth inhibition rate; settings: 14th day after treatment, read-out: Growth inhibition rate (%) of persian speedwell Measured value
Experimental: (§1) Upland field soil was put into a 1/1,000,000 ha pot, and seeds of persian speedwell (Veronica persica Poir.) were sown. When the persian speedwell reached 4.3 to 5.2-leaf stage, predetermined amounts of EC formulation containing pyridate as an active ingredient and ONEHOPE NYUZAI (tradename) were diluted with water (in an amount corresponding to 300 L/ha) and applied for foliar treatment by a small sprayer.
(§2) On the 14th day after treatment, the state of growth of the persian speedwell was visually observed to determine the growth inhibition rate (%). The growth inhibition rate (%) (measured value) and the growth inhibition rate (%) calculated in the same manner as in the above Test Example 1 are shown in Table 6.

[2] = tested on: prickly sida (Sida spinosa L.); assay: Test Example 2: foliar treatment of potted prickly sida, visual growth inhibition rate; settings: 14th day after treatment, read-out: Growth inhibition rate (%) of prickly sida Measured value
Experimental: Upland field soil was put into a 1/1,000,000 ha pot, and seeds of prickly sida (Sida spinosa L.) were sown. When the prickly sida reached 5.5 to 5.8-leaf stage, predetermined amounts of a wettable powder containing pyridate as an active ingredient (tradename: Lentagran WP, manufactured by BCP) and ONEHOPE NYUZAI (tradename) were diluted with water in an amount of corresponding to 1,000 L/ha and applied for foliar treatment by a small sprayer.
as §2, with “prickly sida” for “persian speedwell”, “2.” for “6.”

[3] = tested on: green kyllinga (Kyllinga brevifolia Rottb. var. leiolepis); assay: Test Example 1: foliar treatment of potted green kyllinga in heading stage, visual growth inhibition rate
Description: When the herbicidal activity in a case where two active ingredients are combined, is larger than the simple sum of the respective herbicidal activities of the two active ingredients (the expected activity), it is called a synergistic effect. The activity expected by the combination of two active ingredients can be calculated as follows (Colby S. R., “Weed”, vol. 15, p. 20-22, 1967). E=(α+β)−(αβ)/100 where α: growth inhibition rate when treated with x (g/ha) of herbicide X,
β: growth inhibition rate when treated with y (g/ha) of herbicide Y,
E: growth inhibition rate expected when treated with x (g/ha) of herbicide X and y (g/ha) of herbicide Y.
That is, when the actual growth inhibition rate (measured value) is larger than the growth inhibition rate by the above calculation (calculated value), the activity by the combination can be regarded as showing a synergistic effect.
Upland field soil was put into a 1/1,000,000 ha pot, and rhizomes of green kyllinga (Kyllinga brevifolia Rottb. var. leiolepis) were planted. On the 59th day after planting, to the green kyllinga in heading stage, predetermined amounts of EC formulation containing pyridate as an active ingredient (tradename: Pyridate 600EC, manufactured by BCP), WG formulation containing flazasulfuron as an active ingredient (tradename: SHIBAGEN DF, manufactured by Ishihara Sangyo Kaisha, Ltd.), WG formulation containing trifloxysulfuron Na salt as an active ingredient (tradename: Monument WG, manufactured by Syngenta Japan K.K.), SC formulation containing nicosulfuron as an active ingredient (tradename: ONEHOPE NYUZAI, manufactured by Ishihara Sangyo Kaisha, Ltd.), WG formulation containing halosulfuron-methyl as an active ingredient (tradename: INPOOL DF, manufactured by Nissan Chemical Industries, Ltd.) and WG formulation containing chlorimuron-ethyl as an active ingredient (tradename: ATTRACTIVE, manufactured by MARUWA Biochemical Co., Ltd.) were diluted with water in an amount corresponding to 2,000 L/ha, and applied for foliar treatment by a small sprayer.
On the 14th day after treatment, the state of growth of the green kyllinga was visually observed to determine the growth inhibition rate (%) in accordance with the following evaluation standard. The growth inhibition rate (%) (measured value) and the growth inhibition rate (%) (calculated value) calculated by the Colby's formula are shown in Table 1.
Growth inhibition rate (%)=0 (equivalent to the non-treated area) to 100 (complete kill)

[4] = tested on: summer grass (Digitaria ciliaris (Retz.) Koeler); assay: Test Example 8: foliar treatment of potted summer grass, visual growth inhibition rate on 14th day; settings: read-out: Growth inhibition rate (%) of summer grass Measured value
Description: Upland field soil was put into a 1/1,000,000 ha pot, and seeds of summer grass (Digitaria ciliaris (Retz.) Koeler) were sown.

[5] = tested on: summer grass (Digitaria ciliaris (Retz.) Koeler); assay: Test Example 7: foliar treatment of potted summer grass, visual growth inhibition rate on 7th day; settings: 7th day after treatment
Experimental: as §1, with “summer grass (Digitaria ciliaris (Retz.) Koeler)” for “persian speedwell (Veronica persica Poir.)”, “summer grass” for “persian speedwell”, “4.0” for “4.3”, “5.0-leaf” for “5.2-leaf”, “Monument WG” for “ONEHOPE NYUZAI”
as §2, with “7th” for “14th”, “summer grass” for “persian speedwell”, “7.” for “6.”

[6] = tested on: green kyllinga (Kyllinga brevifolia Rottb. var. leiolepis); assay: Test Example 5: autumn foliar treatment of green kyllinga, visual growth inhibition rate on 220th day; settings: Cyperus brevifolius, 220th day after treatment
Experimental: (§3) Upland field soil was put into a 1/300,000 ha pot, and rhizomes of green kyllinga (Kyllinga brevifolia Rottb. var. leiolepis) were planted. In the autumn of the next year, a predetermined amount of EC formulation containing pyridate as an active ingredient was diluted with water (in an amount corresponding to 2,000 L/ha) and applied for foliar treatment by a small sprayer.
On the 220th day after treatment, the state of growth of the green kyllinga was visually observed to determine the growth inhibition rate (%).

[7] = tested on: green kyllinga (Kyllinga brevifolia Rottb. var. leiolepis); assay: Test Example 4: single or repeated foliar treatment of green kyllinga (height 5 to 7 cm), visual growth inhibition rate; settings: Cyperus brevifolius, 21st day after first treatment
Experimental: as §3, with “1/1,000,000” for “1/300,000”, “When” for “In”, “green kyllinga reached a height” for “autumn”, “from 5 to 7 cm,” for “the next year,”, “sprayer. Further, on the 7th day after the foliar treatment, second treatment was carried out in the same manner on part of the green kyllinga.” for “sprayer.”
On the 21st day after the first treatment, the state of growth of the green kyllinga was visually observed to determine the growth inhibition rate (%).

[8] = tested on: manilagrass (Zoysia matrella (L.) Merr.); assay: Test Example 10: foliar treatment of manilagrass turf, visual growth inhibition rate (safety for turfgrass); settings: for Growth inhibition rate (%) of manilagrass: foliar, 28th day after treatment
Experimental: (§4) Upland field soil was put into a 1/1,000,000 ha pot, and rhizomes of green kyllinga (Kyllinga brevifolia Rottb. var. leiolepis) were planted. When the green kyllinga reached a height of from 6 to 7 cm, predetermined amounts of Lentagran WP (tradename) and WG formulation containing as an active ingredient amicarbazone having the same mode of action as pyridate (tradename: Dinamic, manufactured by Arysta Life Science) were diluted with water (in an amount corresponding to 2,000 L/ha) and applied for foliar treatment by a small sprayer. Separately, upland field soil was put into a 1/300,000 ha pot, and turf of manilagrass (Zoysia matrella (L.) Merr.) was put. After the manilagrass took root, predetermined amounts of Lentagran WP (tradename) and Dinamic (tradename) were diluted with water (in an amount corresponding to 2,000 L/ha) and applied for foliar treatment by a small sprayer.
(§5) On the 27th day after treatment, the state of growth of green kyllinga was visually observed, and on the 28th day after treatment, the state of growth of the manilagrass was visually observed, to determine the growth inhibition rate (%).

[9] = tested on: green kyllinga (Kyllinga brevifolia Rottb. var. leiolepis); assay: Test Example 3: foliar treatment of green kyllinga at 5-leaf stage, visual growth inhibition rate; settings: Cyperus brevifolius, 21st day after treatment
Experimental: as §3, with “1/1,000,000” for “1/300,000”, “When” for “In”, “green kyllinga reached 5-leaf stage,” for “autumn of the next year,”
On the 21st day after treatment, the state of growth of the green kyllinga was visually observed to determine the growth inhibition rate (%).

[10] = tested on: green kyllinga (Kyllinga brevifolia Rottb. var. leiolepis); assay: Test Example 10: foliar treatment of green kyllinga (height 6 to 7 cm), visual growth inhibition rate; settings: 27th day after treatment
Experimental: as §4, §5

[11] = Cyperus brevifolius, read-out: Growth inhibition rate (%) of green kyllinga Measured value

## COc1cc(OC)nc(NC(=O)NS(=O)(=O)c2ncccc2C(=O)N(C)C)n1 [Nicosulfuron, 2-(4,6-dimethoxypyrimidin-2-ylcarbamoylsulfamoyl)-N,N-dimethylnicotinamide]
[1]; dose 100 g/ha
  inhibition at 100 g/ha: 5%
[2]; dose 15 g/ha
  inhibition at 15 g/ha: 30%
[3]; Cyperus brevifolius, dose 80 g/ha, 14th day after treatment, read-out: Growth inhibition rate (%) of green kyllinga Measured value
  inhibition at 80 g/ha: 15%

## COC(=O)c1c(Cl)nn(C)c1S(=O)(=O)NC(=O)Nc1nc(OC)cc(OC)n1 [Halosulfuron-methyl, halosulfuron-methyl]
[4]
  inhibition at 150 g/ha: 0%
[3]; [11]
  inhibition at 375 g/ha: 10%

## CCCCCCCCSC(=O)Oc1cc(Cl)nnc1-c1ccccc1 [Pyridate, O-6-chloro-3-phenylpyridazin-4-yl S-octylthiocarbonate]
[1]; dose 300 g/ha
  inhibition at 300 g/ha: 70%
[4]; dose 3000 g/ha, 14th day after treatment
  inhibition at 3000 g/ha: 50%
[5]; Digitaria ciliaris, dose 300 g/ha, read-out: Growth inhibition rate (%) of summer grass Measured value
  inhibition at 300 g/ha: 8%
[2]; dose 300 g/ha
  inhibition at 300 g/ha: 38%
[3]; Cyperus brevifolius, dose 500 g/ha, 14th day after treatment, read-out: Growth inhibition rate (%) of green kyllinga Measured value
  inhibition at 500 g/ha: 18%
[3]; Cyperus brevifolius, dose 2000 g/ha, 14th day after treatment, read-out: Growth inhibition rate (%) of green kyllinga Measured value
  inhibition at 2000 g/ha: 50%
[6]; dose 2000 g/ha
  inhibition at 2000 g/ha: 100%
[6]; dose 4000 g/ha
  inhibition at 4000 g/ha: 100%
[7]; 1st treatment 1200 g/ha, 2nd treatment 1200 g/ha on 7th day
  inhibition at 1200 g/ha: 100%
[7]; 1st treatment 2400 g/ha, no 2nd treatment
  inhibition at 2400 g/ha: 87%
[7]; 1st treatment 3600 g/ha, no 2nd treatment
  inhibition at 3600 g/ha: 89%
[8]; dose 2000 g/ha
  Growth inhibition rate (%) of manilagrass: 5%
[8]; dose 4000 g/ha
  Growth inhibition rate (%) of manilagrass: 15%
[8]; dose 8000 g/ha
  Growth inhibition rate (%) of manilagrass: 15%
[8]; practical doses, summary of Table 9
  safety for turfgrass: high safety for turfgrass
[9]; dose 1200 g/ha
  inhibition at 1200 g/ha: 90%
[9]; dose 2400 g/ha
  inhibition at 2400 g/ha: 100%
[10]; Cyperus brevifolius, dose 2000 g/ha
  inhibition at 2000 g/ha: 76%
[10]; Cyperus brevifolius, dose 4000 g/ha
  inhibition at 4000 g/ha: 94%

## COc1cc(OC)nc(NC(=O)NS(=O)(=O)c2ncccc2OCC(F)(F)F)n1 [Trifloxysulfuron Na salt]
[5]; dose 100 g/ha
  Growth inhibition rate (%) of summer grass Measured value: 40%
[3]; dose 45 g/ha, 14th day after treatment
  Growth inhibition rate (%) of green kyllinga Measured value: 15%

## CCOC(=O)c1ccccc1S(=O)(=O)NC(=O)Nc1nc(Cl)cc(OC)n1 [Chlorimuron-ethyl, chlorimuron-ethyl]
[3]; [11]
  inhibition at 100 g/ha: 18%

## CC(C)c1nn(C(=O)NC(C)(C)C)c(=O)n1N [Amicarbazone, amicarbazone]
[8]; dose 800 g/ha
  Growth inhibition rate (%) of manilagrass: 30%
[10]; dose 400 g/ha
  Growth inhibition rate (%) of green kyllinga: 30%
[10]; dose 800 g/ha
  Growth inhibition rate (%) of green kyllinga: 86%

## COc1cc(OC)nc(NC(=O)NS(=O)(=O)c2ncccc2C(F)(F)F)n1 [Flazasulfuron, 1-(4,6-dimethoxypyrimidin-2-yl)-3-(3-trifluoromethyl-2-pyridylsulfonyl)urea]
[3]; Cyperus brevifolius, dose 50 g/ha, 14th day after treatment, read-out: Growth inhibition rate (%) of green kyllinga Measured value
  inhibition at 50 g/ha: 33%
